Laboratory results taken from patent publication US8138188B2, “Melanocortin type 4 receptor agonist piperidinoylpyrrolidines” (Pfizer Inc., priority 2006, dated 2012).

How the values were obtained:
MC4 receptor = MC4 receptor (Homo sapiens, UniProt P32245); assay: MC4 functional agonist potency (EC50), assay protocol E of US2005/0176772 / WO 2005/077935; type: cell-based; details: functional potency at the MC4 receptor
Procedure: The compounds of formula (I) of the present invention have utility as MCR4 agonists in the treatment of various disease states.
MC5 and MC4 EC50 activity was determined as described by assay protocols D and E, respectively, in US2005/0176772 (pages 28-30).

human MC3 receptor = molecular target: T1, human MC3 receptor (Homo sapiens, UniProt P41968); assay: In vitro agonist potency (EC50) against melanocortin receptor type 3, cAMP in recombinant cell line; type: cell-based; details: cell line stably transfected with human MC3, 1 hour at 37° C.
T1 construct: stably transfected with full length cDNA encoding human MC1 or MC3 receptors; expressed in transfected cells; host or cells: Chinese hamster ovary cell line (MC3; 'respectively')
T1 sequence (P41968 whole entry): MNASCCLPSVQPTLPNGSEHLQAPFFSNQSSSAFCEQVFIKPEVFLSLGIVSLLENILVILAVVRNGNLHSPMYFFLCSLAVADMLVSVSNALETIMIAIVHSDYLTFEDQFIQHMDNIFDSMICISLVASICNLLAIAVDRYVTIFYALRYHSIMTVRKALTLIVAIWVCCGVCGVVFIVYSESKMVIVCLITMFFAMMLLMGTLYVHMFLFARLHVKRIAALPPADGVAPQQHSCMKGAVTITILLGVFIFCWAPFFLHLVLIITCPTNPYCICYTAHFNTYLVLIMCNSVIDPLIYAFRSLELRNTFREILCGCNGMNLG
Procedure: Measurement of In Vitro Agonist Potency (EC50) of Compounds Against Melanocortin Receptors Type 1 and 3 (MC1 and MC3).
Activation of melanocortin (MC) receptors by agonists results in activation of intracellular adenylate cyclase enzymes that synthesise the second messenger signalling molecule, adenosine 3′,5′-cyclic monophosphate (cAMP). Changes in cAMP levels following treatment of recombinant MC1 and MC3 cell lines with test compound were measured and an MC1 and MC3 potency estimate (EC50) calculated as follows: […]
Human embryonic kidney (HEK) or Chinese hamster ovary cell lines stably transfected with full length cDNA encoding human MC1 or MC3 receptors, respectively, were established using standard molecular biology methods. Test compounds were dissolved in dimethyl sulfoxide (DMSO) at 4 mM. 11 point half log unit increment dilution series of test compound, typically starting at 50 uM were prepared in a buffer comprised of phosphate buffered saline (PBS), 2.5% DMSO and 0.05% pluronic F-127 surfactant. Freshly cultured cells at 80-90% confluence were harvested and re-suspended in Dulbecco's Modified Eagle's Medium (DMEM). Cells (10,000 for MC3, 20,000 for MC1) were added to the test compound dilution series in a 384 well assay plate and incubated for 1 hour at 37° C. The relative cAMP concentration in each well was then measured using a β-galactosidase enzyme fragment complementation method purchased in kit form as the Discoverx cAMP II kit from GE Healthcare/Amersham Biosciences UK. In the case of MC1,3-Isobutyl-1-methylxanthine (IBMX) at a concentration of 750 μM was included in DMEM as the cells were re-suspended for assay. […] Sigmoidal curves were fitted to plots of log10 inhibitor concentration vs percent effect using a custom made software application called SIGHTS and EC50 estimates determined by the software as the concentration of test compound giving an effect half way between the bottom and top assymptopes of the sigmoidal dose response curve. Each experiment included an EC50 determination for alpha melanocyte stimulating hormone, which was used as a standard to track assay consistency and allow fair comparison between EC50 estimates obtained in different experiments.

CYP3A4 = molecular target: T2, CYP3A4 (Homo sapiens, UniProt P08684); assay: High density drug-drug interactions (DDI) 3 μM cocktail screen in human liver microsomes; type: in vitro ADME; details: 3 uM test compound, pooled human liver microsomes, probe midazolam 2 μM; read-out: % Inhibition of 3A4 metabolism at 3 uM
T2 construct: utilizes human liver microsomes together with isoform-specific clinical drug probes; from tissue; host or cells: human liver microsomes
T2 sequence (P08684 whole entry, canonical isoform): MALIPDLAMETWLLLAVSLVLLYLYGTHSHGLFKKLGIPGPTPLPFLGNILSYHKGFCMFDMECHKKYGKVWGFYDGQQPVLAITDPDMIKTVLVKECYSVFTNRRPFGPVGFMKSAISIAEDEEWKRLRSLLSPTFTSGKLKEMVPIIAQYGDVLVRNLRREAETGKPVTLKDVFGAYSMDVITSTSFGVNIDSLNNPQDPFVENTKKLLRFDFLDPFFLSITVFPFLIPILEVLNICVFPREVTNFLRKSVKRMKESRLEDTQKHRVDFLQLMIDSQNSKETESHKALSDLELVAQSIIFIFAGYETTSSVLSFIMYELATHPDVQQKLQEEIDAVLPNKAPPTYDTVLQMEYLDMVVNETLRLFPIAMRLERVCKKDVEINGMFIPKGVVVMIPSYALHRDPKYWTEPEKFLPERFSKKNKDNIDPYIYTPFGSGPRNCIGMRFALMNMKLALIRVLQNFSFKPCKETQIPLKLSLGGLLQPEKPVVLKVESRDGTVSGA
Procedure: High Density Drug-Drug Interactions (DDI) 3 μM Cocktail Screen
A drug interaction is a situation in which a substance affects the activity of another drug, i.e. the effects are increased or decreased, or together they produce a new effect that neither produces on its own. Drug interactions may be the result of various processes but a relatively common one is where one drug affects the pharmacokinetics of another by inhibiting the cytochrome P450 that metabolises it. Because of the importance of these phenomena, assessment of the DDI potential for new chemical entities (NCEs) is considered important early on in the drug discovery process.
The DDI cocktail screen in human liver microsomes (HLM) is run in a fully automated fashion and the aim of the screen is to provide a single-point assessment of the DDI potential of new chemical entity (NCE; tested at 3 μM) against the 4 primary cytochrome P450 enzymes, 1A2, 2D6, 2C9 and 3A4.
The substrate cocktail approach for P450 DDI utilizes human liver microsomes together with isoform-specific clinical drug probes and permits the simultaneous measurement of the inhibition of P450 1A2, 2C9, 2D6 & 3A4 activities in a single incubation. This is run in high throughput with simultaneous detection of metabolites by LC-MS/MS. This method has been thoroughly tested and evaluated using standard compounds.
Appearance of the metabolite of each substrate is measured over time in the presence and absence of the NCE (test compound/inhibitor) at a concentration of 3 μM. The compounds are assessed for their inhibitory potential as a percentage value and interpreted using the following scheme.

Chain of MC4 receptor (P32245 whole entry): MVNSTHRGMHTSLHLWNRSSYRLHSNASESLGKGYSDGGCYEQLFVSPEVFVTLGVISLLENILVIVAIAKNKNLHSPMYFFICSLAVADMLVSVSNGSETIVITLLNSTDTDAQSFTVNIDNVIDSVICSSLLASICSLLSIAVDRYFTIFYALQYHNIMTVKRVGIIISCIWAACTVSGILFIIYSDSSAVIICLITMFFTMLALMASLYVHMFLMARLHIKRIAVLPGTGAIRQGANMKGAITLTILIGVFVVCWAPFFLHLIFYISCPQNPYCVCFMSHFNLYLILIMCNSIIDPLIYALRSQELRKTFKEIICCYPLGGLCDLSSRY

| Compound | EC50 (MC4 receptor) | EC50 (human MC3 receptor) | inhibition at 3 μM (CYP3A4) |
| --- | --- | --- | --- |
| C[C@@H]1CN(C(=O)[C@@H]2CN(c3cccnn3)C[C@H]2c2ccc(Cl)cn2)C[C@H](C)[C@@]1(O)c1ccccn1 [Example 9, (3R,4R,5S)-1-{[(3S,4S)-4-(5-chloropyridin-2-yl)-1-pyridazin-3-ylpyrrolidin-3-yl]carbonyl}-3,5-dimethyl-4-pyridin-2-ylpiperidin-4-ol] | 0.0393 µM | 0.52 µM | 68% |
| COc1ccc(N2CC(C(=O)N3CC(C)C(O)(C4CC4)C(C)C3)C(c3ccc(Cl)cn3)C2)nn1 (centres unmarked) [Example 26] | 0.0225 µM | 4.21 µM | 61% |
| CC1CN(C(=O)C2CN(c3ccc(=O)n(C)n3)CC2c2ccc(F)cn2)CC(C)C1(O)c1ccc(F)cc1 (centres unmarked) [Example 40] | 0.0698 µM | 0.58 µM | 64% |
| COc1ccc([C@@H]2CN(c3ccc(=O)[nH]n3)C[C@H]2C(=O)N2C[C@@H](C)[C@](O)(c3ccc(Cl)cn3)[C@@H](C)C2)nc1 [Example 41] | 0.655 µM | > 33.3 µM | 52% |
| CC1CN(C(=O)C2CN(c3ccc(=O)[nH]n3)CC2c2ccc(F)cn2)CC(C)C1(O)c1ccccc1 (centres unmarked) [Example 37] | – | 0.325 µM | 45% |
| C[C@@H]1CN(C(=O)[C@@H]2CN(c3cncc(F)c3)C[C@H]2c2ccc(Cl)cn2)C[C@H](C)[C@@]1(O)c1ccccn1 [Example 8, (3R,4R,5S)-1-{[(3S,4S)-4-(5-chloropyridin-2-yl)-1-(5-fluoropyridin-3-yl)pyrrolidin-3-yl]carbonyl}-3,5-dimethyl-4-pyridin-2-ylpiperidin-4-ol] | 0.0275 µM | 1.09 µM | 94% |
| C[C@@H]1CN(C(=O)[C@@H]2CN(c3ccc(=O)n(C)n3)C[C@H]2c2ccc(Cl)cn2)C[C@H](C)[C@@]1(O)C1CC1 [Example 18] | 0.0555 µM | > 8.52 µM | 34% |
| C[C@@H]1CN(C(=O)[C@@H]2CN(c3ccc(C#N)cn3)C[C@H]2c2ccc(Cl)cn2)C[C@H](C)[C@@]1(O)c1ccc(F)cc1 [Example 1, 6-[(3S,4S)-3-(5-Chloropyridin-2-yl)-4-{[(3R,4R,5S)-4-(4-fluorophenyl)-4-hydroxy-3,5-dimethylpiperidin-1-yl]carbonyl}pyrrolidin-1-yl]nicotinonitrile] | < 0.00052 µM | 0.0439 µM | 54% |
| CC1CN(C(=O)C2CN(c3ccc(=O)n(C)n3)CC2c2ccc(Cl)cn2)CC(C)C1(O)c1ccc(Cl)cc1 (centres unmarked) [Example 23] | 0.00475 µM | 0.185 µM | 35% |
| CC1CN(C(=O)C2CN(c3ccc(C#N)nn3)CC2c2ccc(Cl)cn2)CC(C)C1(O)c1ccccn1 (centres unmarked) [Example 30] | 0.00577 µM | 0.0615 µM | 38% |
| C[C@@H]1CN(C(=O)[C@@H]2CN(c3ccc(Cl)nn3)C[C@H]2c2ccc(F)cn2)C[C@H](C)[C@@]1(O)c1ccc(Cl)cc1 [Example 5, (3R,4R,5S)-4-(4-chlorophenyl)-1-{[(3S,4S)-1-(6-chloropyridazin-3-yl)-4-(5-fluoropyridin-2-yl)pyrrolidin-3-yl]carbonyl}-3,5-dimethylpiperidin-4-ol] | 0.137 µM | 0.203 µM | 34% |
| CC1CN(C(=O)C2CN(c3ccc(=O)n(C)n3)CC2c2ccc(Cl)cn2)CC(C)C1(O)c1ccc(F)c(F)c1 (centres unmarked) [Example 19] | 0.0065 µM | 0.425 µM | 50% |
| CC1CN(C(=O)C2CN(c3ccc(C#N)cn3)CC2c2ccc(C#N)cn2)CC(C)C1(O)c1ccc(F)cc1 (centres unmarked) [Example 45] | 0.0444 µM | 0.0661 µM | 69% |
| CC1CN(C(=O)C2CN(c3ccc(=O)n(C)n3)CC2c2ccc(Cl)cn2)CC(C)C1(O)c1ccccc1 (centres unmarked) [Example 21] | 0.00281 µM | 0.283 µM | 25% |
| CC1CN(C(=O)C2CN(c3cncc(F)c3)CC2c2ccc(Cl)cn2)CC(C)C1(O)c1ccc(F)cc1 (centres unmarked) [Example 25] | 0.0124 µM | 0.189 µM | 16% |
| COc1ccc(C2(O)C(C)CN(C(=O)C3CN(c4ccc(=O)n(C)n4)CC3c3ccc(Cl)cn3)CC2C)cc1 (centres unmarked) [Example 20] | 0.0164 µM | 1.12 µM | 35% |
| C[C@@H]1CN(C(=O)[C@@H]2CN(c3ccc(=O)[nH]n3)C[C@H]2c2ccc(Cl)cn2)C[C@H](C)[C@@]1(O)c1ccccn1 [Example 28] | 0.0244 µM | 0.938 µM | 77% |
| CC1CN(C(=O)C2CN(c3ccc(=O)[nH]n3)CC2c2ccc(Cl)cn2)CC(C)C1(O)c1ccccc1 (centres unmarked) [Example 27] | 0.00454 µM | 0.39 µM | 64% |
| C[C@@H]1CN(C(=O)[C@@H]2CN(c3ccc(C#N)nn3)C[C@H]2c2ccc(F)cn2)C[C@H](C)[C@@]1(O)c1ccc(Cl)cc1 [Example 32] | 0.00878 µM | 0.0766 µM | 31% |
| C[C@@H]1CN(C(=O)[C@@H]2CN(c3ccc(=O)n(C)n3)C[C@H]2c2ccc(Cl)cn2)C[C@H](C)[C@@]1(O)c1ccccn1 [Example 22] | 0.0198 µM | 1.05 µM | 54% |
| C[C@@H]1CN(C(=O)[C@@H]2CN(c3ccc(=O)n(C)n3)C[C@H]2c2ccc(Cl)cn2)C[C@H](C)[C@@]1(O)c1ccc(Cl)cn1 [Example 10] | 0.0119 µM | 0.493 µM | 19% |
| C[C@@H]1CN(C(=O)[C@@H]2CN(c3ccc(C#N)nn3)C[C@H]2c2ccc(Cl)cn2)C[C@H](C)[C@@]1(O)c1ccc(F)cc1 [Example 2, 6-[(3S,4S)-3-(5-Chloropyridin-2-yl)-4-{[(3R,4R,5S)-4-(4-fluorophenyl)-4-hydroxy-3,5-dimethylpiperidin-1-yl]carbonyl}pyrrolidin-1-yl]pyridazine-3-carbonitrile] | 0.00453 µM | 0.00426 µM | 64% |
| COc1ccc([C@@H]2CN(c3ccc(C#N)nn3)C[C@H]2C(=O)N2C[C@@H](C)[C@](O)(c3ccc(F)cc3)[C@@H](C)C2)nc1 [Example 43] | 0.0493 µM | 1.59 µM | 44% |
| C[C@@H]1CN(C(=O)[C@@H]2CN(c3ccc(C#N)nn3)C[C@H]2c2ccc(C#N)cn2)C[C@H](C)[C@@]1(O)c1ccc(F)cc1 [Example 46] | 0.015 µM | 0.0508 µM | 74% |
| C[C@@H]1CN(C(=O)[C@@H]2CN(c3ccc(=O)n(C)n3)C[C@H]2c2ccc(Cl)cn2)C[C@H](C)[C@@]1(O)C1CCCCC1 [Example 17] | 0.00159 µM | 0.0549 µM | 35% |
| COc1ccc(C2CN(c3ccc(=O)[nH]n3)CC2C(=O)N2CC(C)C(O)(c3ccc(F)cc3)C(C)C2)nc1 (centres unmarked) [Example 42] | – | > 20.3 µM | 59% |
| COc1ccc(N2C[C@@H](C(=O)N3C[C@@H](C)[C@](O)(c4ccc(F)cc4)[C@@H](C)C3)[C@H](c3ccc(Cl)cn3)C2)nn1 [Example 4, (3R,4R,5S)-1-{[(3S,4S)-4-(5-chloropyridin-2-yl)-1-(6-methoxypyridazin-3-yl)pyrrolidin-3-yl]carbonyl}-4-(4-fluorophenyl)-3,5-dimethylpiperidin-4-ol] | – | 0.0559 µM | 38% |
| CC1CN(C(=O)C2CN(c3ccc(=O)n(C)n3)CC2c2ccc(F)cn2)CC(C)C1(O)c1ccccc1 (centres unmarked) [Example 39] | – | 2.1 µM | 30% |
